“And” between values parts separate entries of the source, which are not always exact repeats. Equal entries are not always repeated. Where two headings read alike, the source gives them in different places.
What was measured:
Akt1 = Akt1 (Homo sapiens, UniProt P31749); assay: PhosphoSens continuous fluorometric kinetic enzyme assay
Experimental: (§2) By addition of either 8 nM Akt1, 2 nM Akt2, or 5 nM Akt3 (final concentrations) the reactions were initiated. […] Afterwards the kobs-values were plotted versus the inhibitor concentrations [I] and then fit to the following hyperbolic Eq.

pAkt1 = assay: Western blot analysis, PANC1 cells; type: cell-based, human; settings: PANC1, 24-h treatment
Akt3 [1] = target: T1, Akt3 (Homo sapiens, UniProt Q9Y243, E113A/E114A/E115A); assay: ESI-MS/MS of tryptic digest (modified cysteine residues); type: binding; settings: 5-fold molar excess of inhibitor
T1 construct: AKT3(2–443, E114/115/116A); His6 with TEV protease recognition site (N, cleaved yes); made in house; host or cells: Spodoptera frugiperda (Sf9)
T1 sequence (Q9Y243 2-443 E113A/E114A/E115A): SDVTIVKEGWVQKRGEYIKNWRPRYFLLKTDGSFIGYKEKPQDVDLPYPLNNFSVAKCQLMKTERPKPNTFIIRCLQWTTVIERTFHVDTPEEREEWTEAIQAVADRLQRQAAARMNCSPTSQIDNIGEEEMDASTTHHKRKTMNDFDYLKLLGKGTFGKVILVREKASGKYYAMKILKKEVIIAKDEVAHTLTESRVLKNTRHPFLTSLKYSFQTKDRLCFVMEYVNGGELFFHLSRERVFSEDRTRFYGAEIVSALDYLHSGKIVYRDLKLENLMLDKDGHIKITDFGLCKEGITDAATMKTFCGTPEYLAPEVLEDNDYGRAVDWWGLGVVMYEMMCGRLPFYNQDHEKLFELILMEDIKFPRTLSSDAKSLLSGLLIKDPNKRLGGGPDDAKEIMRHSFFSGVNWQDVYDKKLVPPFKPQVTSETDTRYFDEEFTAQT
Experimental: (§1) ESI-MS/MS samples were prepared as stated above followed by steps of reduction, alkylation, and tryptic digest. The digested samples were stage tip-purified using C18 tips and according to a protocol described elsewhere. Subsequently, samples were thawed, dissolved in 20 μL of 0.1% TFA in water, sonicated at room temperature for 15 min, and centrifuged at 15,000×g for 1 min shortly before analysis. In all, 3 μL of sample were loaded onto a pre-column cartridge and desalted for 5 min using 0.1% TFA in water as eluent at a flow rate of 30 μL/min. The samples were back-flushed from the pre-column to the nano-HPLC column during the whole analysis. Elution was performed using a gradient starting at 5% B with a final composition of 30% B after 35 min (flow rate 300 nL/min) using 0.1% formic acid in water as eluent A and 0.1% formic acid in acetonitrile as eluent B and a column temperature of 40 °C. […] During the complete gradient cycle, a typical TOP10 shot-gun proteomics method for the MS and MS/MS analysis was used. For full scan MS experiments a mass range of m/z 300–1650 was scanned with a resolution of 70000. MS/MS experiments were followed by up to 10 high energy collision dissociation (HCD) MS/MS scans with a resolution of 17,500 of the most intense at least doubly charged ions. Data evaluation was performed using MaxQuant[50]. Spectra were searched against the specific Akt sequence and a contamination database using a false discovery rate of 1% on peptide and protein level using a decoy database for determination of the false discovery rate. For database search oxidation of methionine and N-terminal acetylation of proteins, carbamidomethylation of cysteines, and artificial modification of cysteines were defined as variable modifications.

Akt3 [2] = target: Akt3 (Homo sapiens, UniProt Q9Y243); assay: PhosphoSens continuous fluorometric kinetic enzyme assay
Sequence of Akt3 (Homo sapiens, UniProt Q9Y243) (Q9Y243 whole entry): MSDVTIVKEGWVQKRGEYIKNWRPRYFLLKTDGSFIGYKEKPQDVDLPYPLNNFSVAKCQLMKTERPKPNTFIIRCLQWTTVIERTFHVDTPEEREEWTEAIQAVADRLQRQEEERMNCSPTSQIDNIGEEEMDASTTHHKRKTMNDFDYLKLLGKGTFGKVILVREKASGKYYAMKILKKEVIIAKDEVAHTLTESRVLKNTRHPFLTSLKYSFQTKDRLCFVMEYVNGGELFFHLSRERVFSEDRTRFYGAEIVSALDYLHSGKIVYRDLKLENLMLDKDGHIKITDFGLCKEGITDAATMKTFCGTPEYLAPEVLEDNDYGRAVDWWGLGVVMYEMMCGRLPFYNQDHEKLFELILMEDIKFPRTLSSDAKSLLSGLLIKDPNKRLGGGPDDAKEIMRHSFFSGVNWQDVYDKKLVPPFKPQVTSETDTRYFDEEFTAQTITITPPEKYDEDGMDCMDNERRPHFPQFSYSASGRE
Experimental: as §2

Akt2 [3] = target: T2, Akt2 (Homo sapiens, UniProt P31751); assay: as above
Target sequence in this assay (P31751 whole entry): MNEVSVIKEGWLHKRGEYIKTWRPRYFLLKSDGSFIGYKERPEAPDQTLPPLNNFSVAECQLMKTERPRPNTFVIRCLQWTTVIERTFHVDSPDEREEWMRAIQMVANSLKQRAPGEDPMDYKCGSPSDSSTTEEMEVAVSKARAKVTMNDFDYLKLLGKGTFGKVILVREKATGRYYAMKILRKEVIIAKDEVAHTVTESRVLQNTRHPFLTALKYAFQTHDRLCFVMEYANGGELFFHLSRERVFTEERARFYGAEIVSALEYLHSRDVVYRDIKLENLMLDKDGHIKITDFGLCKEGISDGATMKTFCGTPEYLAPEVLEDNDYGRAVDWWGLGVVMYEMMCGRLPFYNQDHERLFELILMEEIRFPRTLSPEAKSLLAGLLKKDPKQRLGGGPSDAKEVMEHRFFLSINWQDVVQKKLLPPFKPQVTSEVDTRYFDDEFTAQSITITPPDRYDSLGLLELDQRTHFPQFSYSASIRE
Experimental: as §2

Akt2 [4] = target: T2, Akt2; assay: ESI-MS/MS of tryptic digest (modified cysteine residues); type: binding; parameters: AKT2(2–447); His6 with TEV protease recognition site (N, cleaved yes); made in house; host or cells: Spodoptera frugiperda (Sf9); settings: 5-fold molar excess of inhibitor
Experimental: as §1, with “Spectra were searched against the specific Akt sequence and a contamination database using a false discovery rate of 1% on peptide and protein level using a decoy database for determination of the false discovery rate. For database search oxidation of methionine and N-terminal acetylation of proteins, carbamidomethylation of cysteines, and artificial modification of cysteines were defined as variable modifications.” left out
Target sequence in this assay (P31751 2-447): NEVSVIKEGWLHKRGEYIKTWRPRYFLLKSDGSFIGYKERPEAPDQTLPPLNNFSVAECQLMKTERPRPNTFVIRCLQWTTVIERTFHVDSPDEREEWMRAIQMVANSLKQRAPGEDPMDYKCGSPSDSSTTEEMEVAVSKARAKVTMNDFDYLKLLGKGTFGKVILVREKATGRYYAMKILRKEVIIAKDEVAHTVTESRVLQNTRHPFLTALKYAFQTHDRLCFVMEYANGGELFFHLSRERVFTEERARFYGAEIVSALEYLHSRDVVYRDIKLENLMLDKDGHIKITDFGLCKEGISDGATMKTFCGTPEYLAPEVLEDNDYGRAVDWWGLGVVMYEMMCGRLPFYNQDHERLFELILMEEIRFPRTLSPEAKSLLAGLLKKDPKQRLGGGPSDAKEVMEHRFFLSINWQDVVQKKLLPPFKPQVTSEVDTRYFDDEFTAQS

[5] = Ki Akt3, Mean, mean of replicates
[6] = Ki Akt3, individual determinations, single replicates
[7] = read-out: kinact /Ki Akt3, individual determinations, single replicates
[8] = read-out: kinact Akt3, Mean, mean of replicates
[9] = read-out: kinact Akt3, individual determinations, single replicates
[10] = Ki Akt2, Mean, mean of replicates
[11] = Ki Akt2, individual determinations, single replicates
[12] = read-out: kinact Akt2, individual determinations, single replicates

Sequence of Akt1 (P31749 whole entry): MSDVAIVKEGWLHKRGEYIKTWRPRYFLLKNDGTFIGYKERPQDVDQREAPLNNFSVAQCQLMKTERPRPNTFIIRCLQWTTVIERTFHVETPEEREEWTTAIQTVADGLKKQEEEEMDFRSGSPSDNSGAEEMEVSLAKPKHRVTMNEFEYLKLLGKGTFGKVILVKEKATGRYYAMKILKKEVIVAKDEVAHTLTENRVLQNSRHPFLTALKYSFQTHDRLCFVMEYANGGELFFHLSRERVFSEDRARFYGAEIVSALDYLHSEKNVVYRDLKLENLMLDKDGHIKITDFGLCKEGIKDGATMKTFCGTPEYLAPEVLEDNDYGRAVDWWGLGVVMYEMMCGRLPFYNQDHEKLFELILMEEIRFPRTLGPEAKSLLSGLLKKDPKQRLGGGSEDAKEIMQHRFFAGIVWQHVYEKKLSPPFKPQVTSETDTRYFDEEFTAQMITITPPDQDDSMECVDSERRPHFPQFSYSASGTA

SMILES	pAkt1 level (immunoblot) (pAkt1)	Ki (Akt3 [2]; Ki Akt3) [µM]	Ki (Akt3 [2]; [5]) [µM]	Ki (Akt3 [2]; [6])	kinact/KI (Akt3 [2]; read-out: kinact /Ki Akt3) [M⁻¹ s⁻¹]	kinact/KI (Akt3 [2]; [7]) [M⁻¹ s⁻¹]	kinact (Akt3 [2]; read-out: kinact Akt3) [s⁻¹]	kinact (Akt3 [2]; [8]) [s⁻¹]	kinact (Akt3 [2]; [9]) [s⁻¹]	kinact Akt3, individual determinations (Akt3 [2]; single replicates)	Ki (Akt2 [3]; Ki Akt2) [µM]	Ki (Akt2 [3]; [10]) [µM]	Ki (Akt2 [3]; [11])	kinact/KI (Akt2 [3]; read-out: kinact /Ki Akt2) [M⁻¹ s⁻¹]	kinact (Akt2 [3]; read-out: kinact Akt2) [s⁻¹]	kinact (Akt2 [3]; [12]) [s⁻¹]	kinact Akt2, individual determinations (Akt2 [3]; single replicates)	other results
C=CC(=O)Nc1ccc2[nH]c(=O)n(C3CCN(Cc4ccc(-c5ncccc5-c5ccccc5)cc4)CC3)c2c1 [compound 1]	downregulation of pAkt1 and pAkt2	–	–	–	–	–	–	–	–	–	–	–	–	–	–	–	–	Ki (Akt1; Ki Akt1): 0.006 ± 0.002 µM; Ki (Akt1; Ki Akt1, Mean, mean of replicates): 0.00577 µM; Ki (Akt1; Ki Akt1, individual determinations, single replicates): 0.00395 µM and 0.00528 µM and 0.00808 µM; kinact/KI (Akt1; read-out: kinact /Ki Akt1): 38000 ± 10000 M⁻¹ s⁻¹; kinact/KI (Akt1; read-out: kinact /Ki Akt1, Mean, mean of replicates): 36000 M⁻¹ s⁻¹; kinact/KI (Akt1; read-out: kinact /Ki Akt1, individual determinations, single replicates): 36000 M⁻¹ s⁻¹; kinact (Akt1; read-out: kinact Akt1): 0.0002 s⁻¹; kinact (Akt1; read-out: kinact Akt1, individual determinations, single replicates): 0.00015 s⁻¹; kinact Akt1, individual determinations (Akt1; single replicates): 0.015 min⁻¹ and 0.011 min⁻¹
C=CC(=O)Nc1ccc2[nH]c(=O)n(C3CCN(Cc4ccc(-c5ncc(Cc6ccc(N)nc6)cc5-c5ccccc5)cc4)CC3)c2c1 [compound 20]	–	0.053 ± 0.004	0.0701	0.0715 µM and 0.0734 µM and 0.0654 µM	10000 ± 3000	8000	0.000733	0.000767	0.00055	0.061 min⁻¹	0.095 ± 0.014	0.0944	0.0986 µM and 0.101 µM and 0.0712 µM and 0.107 µM	4000 ± 1000	0.00035	0.000383	0.025 min⁻¹ and 0.022 min⁻¹ and 0.015 min⁻¹	modified cysteine residues in Akt3 (MS/MS) (Akt3 [1]): Cys293; kobs (mean) (Akt3 [2]; Akt3 + 20, concentration 2.5 nM): 5.68e-05 s⁻¹; kobs (mean) (Akt3 [2]; Akt3 + 20, concentration 4.9 nM): 4.71e-05 s⁻¹; kobs (mean) (Akt3 [2]; Akt3 + 20, concentration 9.9 nM): 8.01e-05 s⁻¹; kobs (mean) (Akt3 [2]; Akt3 + 20, concentration 39.5 nM): 0.00023 s⁻¹; kobs (mean) (Akt3 [2]; Akt3 + 20, concentration 123.8 nM): 0.000418 s⁻¹; kobs (mean) (Akt3 [2]; Akt3 + 20, concentration 247.5 nM): 0.000431 s⁻¹; kobs (mean) (Akt3 [2]; Akt3 + 20, concentration 371.3 nM): 0.000653 s⁻¹; kinact/KI (Akt3 [2]; read-out: kinact /Ki Akt3, Mean, mean of replicates): 11000 M⁻¹ s⁻¹; kinact/KI (Akt2 [3]; read-out: kinact /Ki Akt2, Mean, mean of replicates): 4000 M⁻¹ s⁻¹
C=CC(=O)Nc1ccc2[nH]c(=O)n(C3CCN(Cc4ccc(-c5ncc(Cc6cn[nH]c6)cc5-c5ccccc5)cc4)CC3)c2c1 [compound 14]	pAkt1 signal remained stable	0.029 ± 0.004	0.0293	0.0355 µM and 0.0277 µM and 0.03 µM and 0.0242 µM	13000 ± 2000	11000	0.000367	0.000367	0.0004	0.023 min⁻¹ and 0.019 min⁻¹ and 0.022 min⁻¹	0.011 ± 0.002	0.0104	0.0132 µM and 0.008 µM and 0.0099 µM	25000 ± 6000	0.000267	0.0002	0.015 min⁻¹ and 0.017 min⁻¹	modified cysteine residues in Akt2 (MS/MS) (Akt2 [4]): Cys297, Cys311, and Cys124; kinact/KI (Akt2 [3]; read-out: kinact /Ki Akt2, individual determinations, single replicates): 15000 M⁻¹ s⁻¹; kinact (Akt2 [3]; read-out: kinact Akt2, Mean, mean of replicates): 0.00025 s⁻¹
